The values that follow come from patent US20220267352A1, “RAPAMYCIN ANALOGS AND USES THEREOF” (Anakuria Therapeutics, Inc., priority 2021, published 2022).

Broadly, the IC50 is the concentration at which inhibition is half-maximal.

What all share (format): cell-based
For one experiment, the system named is mTORC1 over mTORC2. Kind of experiment: mTORC1 over mTORC2 selectivity by comparing pS6K1 and pAKT IC50. The settings on record: by comparing pS6K1 and pAKT IC50, 90 min. Here is the method: Assay Protocol: • 1. Seed MCF-7 cells in Corning 3701 plate and incubate for 20˜24 hour. 12,000˜16,000 cells will be seeded in 36 μL medium per well. • 2. Change the culture medium with fresh medium and incubate for another 2 hours. • 3. Add 12 μL (4×) compounds into the cell plate by HAMILTON. Final DMSO concentration is 0.5%. Incubate for 90 minutes. • 4. Aspirate 38 μL by HAMILTON, 10 μL rest per well. • 5. Add 10 μL 2× lysis buffer using HAMILTON; total volume in wells is 20 μL. Allow cells to shake for 30 min. Cover plate by plastic foil and store plate at −80° C. up to analysis. • 6. Thaw cell lysate at RT and transfer 10 μL lysate to assay plate (Optiplate-384). • 7. Add 5 μL acceptor beads into assay plate and incubation for 2 hours • 8. Add 5 μL donor beads and incubation for 2 hours • 9. Count the plate by EnSpire Multimode Plate Reader […]
Compounds that are not selective by comparing pS6K1 and pAKT IC50 by kinase assays are indicated by “NO” in the “mTORC1 selective @ 90 min” column of Table 4. […] Compounds that are not selective at the 24 hrs mark are indicated by “NO” in the “mTORC1 selective @ 24 hrs” column of Table 4. “N/A” stands for “not assayed” and “N/C” stands for “not calculated”.

In experiment [1] the test system is p-p70 S6 Kinase (Thr389) in MCF-7 cells. Kind of experiment: AlphaLISA Ultra pS6K1 assay. Particulars: Homo sapiens, 1.5 h; MCF7 cells, 90 min. Put shortly:
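MCF-7 cells seeded 20–24 h, given fresh medium 2 h, then treated with compounds 90 min (0.5% DMSO final). Cells lysed, lysates frozen at −80 °C, then Thr389-phosphorylated S6K1 detected by AlphaLISA Ultra with acceptor beads 2 h, then donor beads 2 h.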
(In Alpha technology, singlet oxygen from a donor bead excites a nearby acceptor bead.)

The test system of experiment [2] is p-Akt 1/2/3 (Ser473) in MCF-7 cells. Kind of experiment: AlphaLISA Ultra pAKT assay. The settings on record: Homo sapiens, 1.5 h; MCF7 cells, 90 min. An outline of the steps: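 MCF-7 cells (16,000˜20,000 per well in 36 μL medium) were seeded in Corning 3701 plates for 20˜24 hour, refreshed with new medium for 90 minutes, then given 12 μL of 4× compound (0.5% final DMSO). Cells were lysed with 2× lysis buffer, and lysate was analyzed by AlphaLISA Ultra pAKT using acceptor and donor beads, read on an EnSpire reader.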

Regarding `CO[C@@H]1C[C@H](C[C@@H](C)[C@@H]2CC(=O)[C@H](C)/C=C(\C)[C@@H](O)[C@@H](OC)C(=O)[C@H](C)C[C@H](C)/C=C/C=C/C=C(\C)[C@H](OCC3COCCO3)C[C@@H]3CC[C@@H](C)[C@@](O)(O3)C(=O)C(=O)N3CCCC[C@H]3C(=O)O2)CC[C@H]1OC(F)F` (stereo partly drawn) [I-10, (24E,26E,28E,29E,32R,33S,34R,35R,37S,39S,41R,42S,44R,45R,55R)-42-[(1R)-2-[(1S,3R,4R)-4-(difluoromethoxy)-3-methoxy-cyclohexyl]-1-methyl-ethyl]-41-(1,4-dioxan-2-ylmethoxy)-44,55-dihydroxy-45-methoxy-32,33,34,35,46,47-hexamethyl-66,67-dioxa-56-azatricyclohexatriaconta-24,26,28(46),29(47)-tetraene-48,49,50,51,52-pentone], the “mTORC1 selective @ 90 min” value in the experiment on mTORC1 over mTORC2 is “Yes”. Moreover, the IC50 in experiment [1] was 10 to 100 nM; in experiment [2], at least 1000 nM.
For `CO[C@@H]1C[C@H](C[C@@H](C)[C@@H]2CC(=O)[C@H](C)/C=C(\C)[C@@H](O)[C@@H](OC)C(=O)[C@H](C)C[C@H](C)/C=C/C=C/C=C(\C)C(OCCOC3CCOCC3)C[C@@H]3CC[C@@H](C)[C@@](O)(O3)C(=O)C(=O)N3CCCC[C@H]3C(=O)O2)CC[C@H]1OP(C)(C)=O` (stereo partly drawn) [I-86, (1R,9S,12S,15R,16E,18R,19R,21R,23S,24E,26E,28E,32S,35R)-12-[(1R)-2-[(1S,3R,4R)-4-dimethylphosphoryloxy-3-methoxy-cyclohexyl]-1-methyl-ethyl]-1,18-dihydroxy-19-methoxy-15,17,21,23,29,35-hexamethyl-30-(2-tetrahydropyran-4-yloxyethoxy)-11,36-dioxa-4-azatricyclo[30.3.1.0^4,9]hexatriaconta-16,24,26,28-tetraene-2,3,10,14,20-pentone], the “mTORC1 selective @ 90 min” value with mTORC1 over mTORC2 was “Yes”. The IC50 in experiment [1] was under 1 nM; in experiment [2] it was at least 1000 nM.
As to `CO[C@@H]1/C(C)=C/[C@@H](C)C(=O)C[C@@H]([C@H](C)C[C@@H]2CC[C@@H](OC)[C@H](OC)C2)OC(=O)[C@@H]2CCCCN2C(=O)C(=O)[C@]2(O)O[C@@H](CC[C@H]2C)CC(OCCOCCN)/C(C)=C/C=C/C=C/[C@@H](C)C[C@@H](C)C(=O)[C@@H]1OC` (stereo partly drawn) [I-22], in the experiment on mTORC1 over mTORC2, the “mTORC1 selective @ 90 min” value is reported as “Yes”. The IC50 in experiment [1] is 100 to 1000 nM; in experiment [2] it was at least 1000 nM.
For `COCCOCCO[C@@H]1C[C@@H]2CC[C@@H](C)[C@@](O)(O2)C(=O)C(=O)N2CCCC[C@H]2C(=O)O[C@H]([C@H](C)C[C@@H]2CC[C@@H](OC(F)F)[C@H](OC)C2)CC(=O)[C@H](C)/C=C(\C)[C@@H](O)[C@@H](OC)C(=O)[C@H](C)C[C@H](C)/C=C/C=C/C=C/1C` [I-5, (22E,24E,26E,27E,33R,34S,35R,36R,38S,40S,42R,43S,44R,45R,55R)-43-[(1R)-2-[(1S,3R,4R)-4-(difluoromethoxy)-3-methoxy-cyclohexyl]-1-methyl-ethyl]-44,55-dihydroxy-45-methoxy-42-[2-(2-methoxyethoxy)ethoxy]-33,34,35,36,46,47-hexamethyl-64,65-dioxa-56-azatricyclohexatriaconta-22,24,26(46),27(47)-tetraene-48,49,50,51,52-pentone], in the experiment with mTORC1 over mTORC2, the “mTORC1 selective @ 90 min” value is recorded as “Yes”. Further, the IC50 in experiment [1] is 10 to 100 nM; in experiment [2], at least 1000 nM.
The corresponding values for `COCCO[C@@H]1CC[C@@H](C[C@@H](C)[C@@H]2CC(=O)[C@H](C)/C=C(\C)[C@@H](OC)[C@@H](OC)C(=O)[C@H](C)C[C@H](C)/C=C/C=C/C=C(\C)C(OCCOCCOC3COC3)C[C@@H]3CC[C@@H](C)[C@@](O)(O3)C(=O)C(=O)N3CCCC[C@H]3C(=O)O2)C[C@H]1OC` (stereo partly drawn) [I-81, (1R,9S,12S,15R,16E,18R,19R,21R,23S,24E,26E,28E,32S,35R)-1-hydroxy-18,19-dimethoxy-12-[(1R)-2-[(1S,3R,4R)-3-methoxy-4-(2-methoxyethoxy)cyclohexyl]-1-methyl-ethyl]-15,17,21,23,29,35-hexamethyl-30-[2-[2-(oxetan-3-yloxy)ethoxy]ethoxy]-11,36-dioxa-4-azatricyclo[30.3.1.0^4,9]hexatriaconta-16,24,26,28-tetraene-2,3,10,14,20-pentone] are “Yes”, 10 to 100 nM and at least 1000 nM.
The like results for `CO[C@@H]1C[C@H](C[C@@H](C)[C@@H]2CC(=O)[C@H](C)/C=C(\C)[C@@H](O)[C@@H](OC)C(=O)[C@H](C)C[C@H](C)/C=C/C=C/C=C(\C)[C@H](OCC3COCCO3)C[C@@H]3CC[C@@H](C)[C@@](O)(O3)C(=O)C(=O)N3CCCC[C@H]3C(=O)O2)CC[C@H]1OC(=O)NCCN1CCOCC1` (stereo partly drawn) [I-102, [(42S,44R,46R)-4-[(2R)-2-[(28E,30E,32E,33E,38R,39S,40R,41R,43S,45S,47R,48S,50R,51R,61R)-47-(1,4-dioxan-2-ylmethoxy)-50,61-dihydroxy-51-methoxy-38,39,40,41,52,53-hexamethyl-54,55,56,57,58-pentaoxo-76,77-dioxa-64-azatricyclohexatriaconta-28,30,32(52),33(53)-tetraen-48-yl]propyl]-46-methoxy-44-cyclohexyl] N-(2-morpholinoethyl)carbamate] were, in that order, “Yes”, under 1 nM and at least 1000 nM.
The corresponding values for `COCCOCCO[C@@H]1C[C@@H]2CC[C@@H](C)[C@@](O)(O2)C(=O)C(=O)N2CCCC[C@H]2C(=O)O[C@H]([C@H](C)C[C@@H]2CC[C@@H](OCCO)[C@H](OC)C2)CC(=O)[C@H](C)/C=C(\C)[C@@H](OC)[C@@H](OC)C(=O)[C@H](C)C[C@H](C)/C=C/C=C/C=C/1C` [I-36, (23E,25E,27E,28E,36R,37S,38R,39R,41S,43S,45R,46S,47R,48R,57R)-57-hydroxy-46-[(1R)-2-[(1S,3R,4R)-4-(2-hydroxyethoxy)-3-methoxy-cyclohexyl]-1-methyl-ethyl]-47,48-dimethoxy-45-[2-(2-methoxyethoxy)ethoxy]-36,37,38,39,49,50-hexamethyl-66,67-dioxa-58-azatricyclohexatriaconta-23,25,27(49),28(50)-tetraene-51,52,53,54,55-pentone] are “Yes”, 1 to 10 nM and at least 1000 nM.
For `CO[C@@H]1/C(C)=C/[C@@H](C)C(=O)C[C@@H]([C@H](C)C[C@@H]2CC[C@@H](OP(C)(C)=O)[C@H](OC)C2)OC(=O)[C@@H]2CCCCN2C(=O)C(=O)[C@]2(O)O[C@@H](CC[C@H]2C)C[C@H](OCC2COCCO2)/C(C)=C/C=C/C=C/[C@@H](C)C[C@@H](C)C(=O)[C@@H]1OC` (stereo partly drawn) [I-25, (27E,29E,31E,32E,35R,36S,37R,38R,40S,42S,44S,45S,47R,48R,57R)-45-[(1R)-2-[(1S,3R,4R)-4-dimethylphosphoryloxy-3-methoxy-cyclohexyl]-1-methyl-ethyl]-44-(1,4-dioxan-2-ylmethoxy)-57-hydroxy-47,48-dimethoxy-35,36,37,38,49,50-hexamethyl-68,69-dioxa-58-azatricyclohexatriaconta-27,29,31(49),32(50)-tetraene-51,52,53,54,55-pentone], the “mTORC1 selective @ 90 min” value in the experiment with mTORC1 over mTORC2 is on record as “Yes”. The concentration for half-maximal inhibition (IC50) in experiment [1] was 10 to 100 nM; in experiment [2], at least 1000 nM.
